Source: patent US8853392B2, “Benzamide mGluR5 positive allosteric modulators and methods of making and using same” (Vanderbilt University, priority 2007, dated 2014)
“And” between values parts separate entries of the source, which are not always exact repeats. Equal values may be shown once. “Also recorded” adds a separate entry of the source. Read-outs that look alike come from different tables or passages of the source.

How the values were obtained:
[1] = system: hippocampal long term potentiation (LTP); assay: hippocampal long term potentiation (LTP); type: cell-based; conditions: after applying a stimulus to the synapse, FIG. 17
Text: (§1) mGluR5 potentiation has also been linked to improvement of cognition (Kinney, G. G.; O'Brien, Lemaire, W.; Burno, M.' Bickel, D. J.; Clements, M. K.; Wisnoski, D. D.; Lindsley, C. W.; Tiller, P. R.; Smith, S.; Jacobson, M. A.; Sur, C.; Duggan, M. E.; Pettibone, D. J.; Williams, Jr., D. W. ‘A novel selective allosteric modulator of metabotropic glutamate receptor subtype 5 (mGluR5) has an antipsychotic profile in rat behavioral models’ J. Pharmacol. Exp. Therapeut. 2005, 313(1), 199; Lindsley, C. W.; Wisnoski, D. D.; Leister, W. H.; O'Brien, J. A.; Lemiare, W.; Williams, Jr., D. L.; Burno, M.; Sur, C.; Kinney, G. G.; Pettibone, D. J.; iller, P. R.; Smith, S.; Duggan, M. E.; Hartman, G. D.; Conn, P. J.; Huff, J. R. ‘Discovery of positive allosteric modulators for the metabotropic glutamate receptor subtype from a series of N-(1,3-Diphenyl-1H-pyrazol-5-yl)benzamides that potentiate receptor function in vivo’ J. Med. Chem. 2004, 47, 5825; Epping-Jordan M. P., Nayak, S., Derouet, F., Dominguez, H., Bessis A. S., Le Poul E., Ludwig B. L. Mutel V., Poli S. M. and Rocher J. P. In Vivo Characterization of mGluR5 Positive Allosteric Modulators as Novel Treatments for Schizophrenia and Cognitive Dysfunction Neuropharmacology 2005, 49, 243.). […]

[2] = system: amphetamine-induced hyperlocomotion; assay: reversal of amphetamine-induced hyperlocomotion; type: in vivo, male Sprague-Dawley rats; conditions: rats, i.p., FIG. 8-10, 13, 14
Method: For example, compounds of the present invention reverse amphetamine-induced hyperlocomotion in male Sprague-Dawley rats at doses ranging from 1 to 100 mg/kg i.p. Data for three example compounds follow:
Locomotor activity can be assessed as mean distance traveled (cm) in standard 16×16 photocell testing chambers measuring 43.2 cm (L)×43.2 cm (W)×30.5 cm (H) (Med Associates, St. Albans, Vt.). Animals can be habituated to individual activity chambers for at least 60 min prior to drug administration. Following administration of appropriate drugs or vehicle, activity can be recorded for a 3 hr time period. Data can be expressed as the mean (±SEM) distance traveled recorded in 10 min intervals over the test period. The data can be analyzed using repeated measures analysis of variance (ANOVA) followed by post-hoc testing using Tukey's HSD test, when appropriate. A difference can be considered significant when p≦0.05.

rat mGluR5 = molecular target: T1, rat mGluR5 (Rattus norvegicus, UniProt P31424); assay: potentiation of mGluR5 response to glutamate, Ca2+ fluorescence (FDSS) in HEK cells transfected with rat mGluR5; type: cell-based; conditions: for Emax: HEK293, read-out: % Glu Max
T1 construct: expressed in transfected cells; host or cells: human embryonic kidney (HEK) cells
T1 sequence (P31424 21-1203): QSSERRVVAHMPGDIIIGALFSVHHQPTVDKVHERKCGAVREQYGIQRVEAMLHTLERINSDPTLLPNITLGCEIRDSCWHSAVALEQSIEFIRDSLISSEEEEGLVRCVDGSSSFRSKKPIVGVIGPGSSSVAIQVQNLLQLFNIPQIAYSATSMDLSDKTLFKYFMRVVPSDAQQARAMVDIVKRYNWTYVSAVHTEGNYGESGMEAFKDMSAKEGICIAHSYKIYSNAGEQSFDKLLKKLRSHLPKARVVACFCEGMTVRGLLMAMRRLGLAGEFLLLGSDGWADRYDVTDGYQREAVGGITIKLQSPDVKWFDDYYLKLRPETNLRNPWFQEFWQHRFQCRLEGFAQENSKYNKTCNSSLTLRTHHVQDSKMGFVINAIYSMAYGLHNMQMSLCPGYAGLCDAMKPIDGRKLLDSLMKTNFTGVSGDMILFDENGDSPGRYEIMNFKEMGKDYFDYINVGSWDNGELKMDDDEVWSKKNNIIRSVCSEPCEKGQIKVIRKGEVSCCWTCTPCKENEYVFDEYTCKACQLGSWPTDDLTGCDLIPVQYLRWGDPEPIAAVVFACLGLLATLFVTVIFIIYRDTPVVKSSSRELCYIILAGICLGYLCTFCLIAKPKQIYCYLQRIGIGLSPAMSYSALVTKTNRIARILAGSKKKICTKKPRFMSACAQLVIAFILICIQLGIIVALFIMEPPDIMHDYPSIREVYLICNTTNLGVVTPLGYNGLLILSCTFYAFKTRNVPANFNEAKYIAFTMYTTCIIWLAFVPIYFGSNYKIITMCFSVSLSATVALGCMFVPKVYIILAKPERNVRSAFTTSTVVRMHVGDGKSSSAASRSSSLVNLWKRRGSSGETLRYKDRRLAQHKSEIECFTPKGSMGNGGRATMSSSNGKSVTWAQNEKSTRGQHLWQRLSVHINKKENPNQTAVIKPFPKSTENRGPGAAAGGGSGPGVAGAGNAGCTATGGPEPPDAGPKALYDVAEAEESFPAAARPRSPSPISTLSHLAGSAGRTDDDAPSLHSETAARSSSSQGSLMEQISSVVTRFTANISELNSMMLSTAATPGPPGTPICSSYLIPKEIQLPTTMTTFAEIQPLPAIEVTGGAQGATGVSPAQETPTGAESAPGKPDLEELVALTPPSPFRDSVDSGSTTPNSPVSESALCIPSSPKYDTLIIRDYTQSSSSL
How it was run: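 HEK cells expressing rat mGluR5, loaded with 2 μM fluo-4 AM; buffer HBSS, 20 mM HEPES, 2.5 mM probenecid, pH 7.4, 0.1% DMSO final. Compound added 5 min before glutamate, typically at EC20, with Ca2+ fluorescence read over 1 min and normalized to maximal agonist response. Potentiator EC50 from curve fitting; agonist curve shifts measured at fixed compound concentrations.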

[3] = system: Novel Object Recognition (NOR); assay: Novel Object Recognition (NOR); type: in vivo; conditions: FIG. 11
Text: as §1

[4] = system: prepulse inhibition (PPI); assay: reversal of amphetamine-induced prepulse inhibition (PPI) of startle; type: in vivo, rats; conditions: FIG. 15, 16; four prepulse intensities above background
Text: Schizophrenic patients show decreased measures of sensorimotor gating, such as prepulse inhibition (PPI) of startle, and preclinical models of PPI in rats are routinely used to predict antipsychotic efficacy. In fact, PPI can be measured in humans and rats employing identical stimulus parameters yielding similar responses (Braff, D. L.; Geyer, M. A.; Swerdlow, N. R. ‘Human studies of prepulse inhibition of startle: normal subjects, patient groups, and pharmacological studies.’ Psychopharmacology 2001, 156(2-3), 234-258; Braff, D. L.; Geyer, M. A. ‘Sensorimotor gating and schizophrenia. Human and animal model studies.’ Archives of general psychiatry 1990, 47(2), 181-8; Braff, D. L.; Geyer, M. A.; Swerdlow, N. R. ‘Human studies of prepulse inhibition of startle: normal subjects, patient groups, and pharmacological studies.’ Psychopharmacology 2001, 156(2-3), 234-258; Weiss, I. C.; Feldon, J. ‘Environmental animal models for sensor motor gating deficiencies in schizophrenia: a review.’ Psychopharmacology 2001, 156(2-3), 305-326; Thomsen, M.; Woertwein, G.; Fink-Jensen, A.; Woldbye, D. P. D.; Wess, J.; Caine, S. B. ‘Decreased prepulse inhibition and increased sensitivity to muscarinic, but not dopaminergic drugs in M5 muscarinic acetylcholine receptor knockout mice.’ Psychopharmacology 2007, 192(1), 97-110.). […]

[5] = Table 1, EC50 for potentiating the mGluR5 receptor, unit inferred, read-out: EC50
[6] = in vitro potency, read-out: In vitro

EC50 (rat mGluR5; [5])	Emax (rat mGluR5)	EC50 (rat mGluR5; [6])	Molecule	increase in strength of synaptic connections (hippocampal LTP) [1]	reversal of amphetamine-induced hyperlocomotion ([2]; listed as VU000013)	reversal of amphetamine-induced hyperlocomotion ([2]; listed as VU00013)	reversal of amphetamine-induced hyperlocomotion [2]	improvement in Novel Object Recognition (NOR) [3]	reversal of amphetamine-induced prepulse inhibition (PPI) [4]
			O=C(Nc1cc(-c2ccccc2)nn1-c1ccccc1)c1ccc([N+](=O)[O-])cc1 [VU29]	induced a robust increase in synaptic connections					
14.3 nM	50%	13.6 nM	O=C(c1ccc(C#Cc2ccccc2)cc1)N1CCC(O)CC1 [Compound VU13, (4-hydroxypiperidin-1-yl)(4-(phenylethynyl)phenyl)methanone]				efficacy in reversing amphetamine-induced hyperlocomotion; also recorded: in vivo efficacy		
32.7 nM and 43.4 nM	41%	29.6 nM	O=C(c1ccc(C#Cc2ccccc2)cc1)N1CCC(CO)CC1 [Compound VU14/C104B2, (4-(hydroxymethyl)piperidin-1-yl)(4-(phenylethynyl)phenyl)methanone]				efficacy in reversing amphetamine-induced hyperlocomotion; also recorded: in vivo efficacy		
			O=C(c1ccc(F)cc1)N1CCC[C@H](c2nc(-c3ccc(F)cc3)no2)C1 [ADX47273]	induced a robust increase in synaptic connections			afforded similar results; also recorded: reversal of amphetamine-induced hyperlocomotion	robust and significant improvement in NOR; also recorded: cognitive improvement	affords similar results; also recorded: reversal of amphetamine-induced prepulse inhibition (PPI)

Molecule	EC50 (rat mGluR5; [5])	Emax (rat mGluR5)	EC50 (rat mGluR5; [6])	increase in strength of synaptic connections (hippocampal LTP) [1]	reversal of amphetamine-induced hyperlocomotion ([2]; listed as VU000013)	reversal of amphetamine-induced hyperlocomotion ([2]; listed as VU00013)	reversal of amphetamine-induced hyperlocomotion [2]	improvement in Novel Object Recognition (NOR) [3]	reversal of amphetamine-induced prepulse inhibition (PPI) [4]
(4-hydroxypiperidin-1-yl)(4-(phenylethynyl)phenyl)methanone [Compound VU13]	28.3 nM				affords similar results	reversal of amphetamine-induced hyperlocomotion			
